Measurements as given in patent publication US11007136B2, “Cosmetic composition for wrinkle reduction containing gypenoside isolated from Gynostemma pentaphyllum” (CELLTRION INC., priority 2015, dated 2021).

What was measured:
[1] = tested on: human dermal fibroblast neonatal; assay: Procollagen production (collagen synthesis promotion), ELISA kit; type: cell-based; conditions: 1 and 5 μg/ml, 48 h, versus positive control NAG at the same concentration, FIG. 3
Protocol: A human dermal fibroblast neonatal (Cascade Co.) was inoculated into a 24-well microplate (5×10^4 cells/well) by using a medium, in which Dulbeco's Modified Eagle's Medium (DMEM) was supplemented with 10% fetal bovine serum, thus being cultured under a condition of 37° C. and 5% CO2 for 24 hours. Then, the same was replaced with a serum-free DMEM medium and cultured for 24 hours, after which an appropriate amount of a sample fluid was treated so that a final concentration of each test compound could reach 1 μg/ml and 5 μg/ml. After being cultured for 48 hours, a cell culture fluid was collected and then an amount of procollagen was measured by using a collagen measurement kit of Takara Company (Takara Shuzo Co., Ltd.). First of all, the collected cell culture fluid was injected into a 96-well microplate, to which a primary collagen antibody was evenly applied, such that an antigen-antibody reaction could occur at 37° C. for three hours. The cell culture fluid was removed from the well and washed four times with PBS. A color causing material was injected into each well, after which a reaction took place at a room temperature for 15 minutes, such that 1 N sulfuric acid solution was added thereto, thus stopping the reaction. An optical density was measured at a wavelength of 450 nm by means of a spectrophotometer. […]

[2] = tested on: human dermal fibroblast neonatal; assay: Cytotoxicity test (MTT); type: cell-based; conditions: for HDFn Viability: 48 h, % control
Protocol: A human dermal fibroblast neonatal (Cascade Co.) was inoculated into a 24-well microplate (5×10^4 cells/well) by using a medium, in which Dulbeco's Modified Eagle's Medium (DMEM) was supplemented with 10% fetal bovine serum, thus being cultured under a condition of 37° C. and 5% CO2 for 24 hours. Then, the same was replaced with a serum-free DMEM medium and cultured for 24 hours, thus treating the Gynostemma pentaphyllum gypenoside fraction obtained from the Example 1 and the gypenosides UL4 and UL5 isolated therefrom, respectively. After being cultured for 48 hours, an MTT solution was added thereto, thus being cultured for four hours. The medium was removed therefrom and DMSO was added thereto, thus dissolving an MTT formazan. The MTT formazan dissolved in the DMSO was taken out and an optical density thereof was measured at 570 nm, thus being compared to a group without sample treatment and indicated as % control.

[3] = Titer stability of UL4 and UL5 within formulations (HPLC); type: physicochemical; conditions: for content stability Result: over 12 weeks
Protocol: As shown in Formulation Examples 1, 2 and 3, cosmetic compositions of a high viscosity emulsified formulation, a low viscosity emulsified formulation and a solubilized formulation, respectively comprising 0.2% of the Gynostemma pentaphyllum gypenoside fraction, were stored under a condition of 4 CC, 30 CC, 45° C. and sunlight for 12 weeks and changes with passage of time (% compared to an initial content) in the gypenosides UL4 and UL5, which were index ingredients for quantification out of the Gynostemma pentaphyllum gypenoside ingredients, were observed through an HPLC analysis, and results thereof were indicated in Tables 10 to 12.

content, % compared to an initial content ([3]; High viscosity emulsified formulation, 4° C., 1 week): 101.9%
content, % compared to an initial content ([3]; High viscosity emulsified formulation, 4° C., 2 weeks): 95.9%
content, % compared to an initial content ([3]; High viscosity emulsified formulation, 4° C., 4 weeks): 102%
content, % compared to an initial content ([3]; High viscosity emulsified formulation, 4° C., 8 weeks): 101.4%
content, % compared to an initial content ([3]; High viscosity emulsified formulation, 4° C., 12 weeks): 104.1%
content stability Result ([3]; High viscosity emulsified formulation, 4° C.): Stable
content, % compared to an initial content ([3]; High viscosity emulsified formulation, 30° C., 1 week): 105.2%
content, % compared to an initial content ([3]; High viscosity emulsified formulation, 30° C., 2 weeks): 103.1%
content, % compared to an initial content ([3]; High viscosity emulsified formulation, 30° C., 4 weeks): 104.4%
content, % compared to an initial content ([3]; High viscosity emulsified formulation, 30° C., 8 weeks): 105.7%
content, % compared to an initial content ([3]; High viscosity emulsified formulation, 30° C., 12 weeks): 108.2%
content stability Result ([3]; High viscosity emulsified formulation, 30° C.): Stable
content, % compared to an initial content ([3]; High viscosity emulsified formulation, 45° C., 1 week): 105.3%
content, % compared to an initial content ([3]; High viscosity emulsified formulation, 45° C., 2 weeks): 108.2%
content, % compared to an initial content ([3]; High viscosity emulsified formulation, 45° C., 4 weeks): 107.6%
content, % compared to an initial content ([3]; High viscosity emulsified formulation, 45° C., 8 weeks): 108.1%
content, % compared to an initial content ([3]; High viscosity emulsified formulation, 45° C., 12 weeks): 107.1%
content stability Result ([3]; High viscosity emulsified formulation, 45° C.): Stable
content, % compared to an initial content ([3]; High viscosity emulsified formulation, Sunlight, 1 week): 102.4%
content, % compared to an initial content ([3]; High viscosity emulsified formulation, Sunlight, 2 weeks): 99.8%
content, % compared to an initial content ([3]; High viscosity emulsified formulation, Sunlight, 4 weeks): 101.2%
content, % compared to an initial content ([3]; High viscosity emulsified formulation, Sunlight, 8 weeks): 99.4%
content, % compared to an initial content ([3]; High viscosity emulsified formulation, Sunlight, 12 weeks): 103.6%
content stability Result ([3]; High viscosity emulsified formulation, Sunlight): Stable
content, % compared to an initial content ([3]; Low viscosity emulsified formulation, 4° C., 1 week): 100.1%
content, % compared to an initial content ([3]; Low viscosity emulsified formulation, 4° C., 2 weeks): 102.4%
content, % compared to an initial content ([3]; Low viscosity emulsified formulation, 4° C., 4 weeks): 101.2%
content, % compared to an initial content ([3]; Low viscosity emulsified formulation, 4° C., 8 weeks): 94.9%
content, % compared to an initial content ([3]; Low viscosity emulsified formulation, 4° C., 12 weeks): 94.1%
content stability Result ([3]; Low viscosity emulsified formulation, 4° C.): Stable
content, % compared to an initial content ([3]; Low viscosity emulsified formulation, 30° C., 1 week): 105.0%
content, % compared to an initial content ([3]; Low viscosity emulsified formulation, 30° C., 2 weeks): 101.8%
content, % compared to an initial content ([3]; Low viscosity emulsified formulation, 30° C., 4 weeks): 101.6%
content, % compared to an initial content ([3]; Low viscosity emulsified formulation, 30° C., 8 weeks): 104.1%
content, % compared to an initial content ([3]; Low viscosity emulsified formulation, 30° C., 12 weeks): 105.2%
content stability Result ([3]; Low viscosity emulsified formulation, 30° C.): Stable
content, % compared to an initial content ([3]; Low viscosity emulsified formulation, 45° C., 1 week): 101.9%
content, % compared to an initial content ([3]; Low viscosity emulsified formulation, 45° C., 2 weeks): 106.2%
content, % compared to an initial content ([3]; Low viscosity emulsified formulation, 45° C., 4 weeks): 105.9%
content, % compared to an initial content ([3]; Low viscosity emulsified formulation, 45° C., 8 weeks): 95.6%
content, % compared to an initial content ([3]; Low viscosity emulsified formulation, 45° C., 12 weeks): 99.3%
content stability Result ([3]; Low viscosity emulsified formulation, 45° C.): Stable
content, % compared to an initial content ([3]; Low viscosity emulsified formulation, Sunlight, 1 week): 96.3%
content, % compared to an initial content ([3]; Low viscosity emulsified formulation, Sunlight, 2 weeks): 99.5%
content, % compared to an initial content ([3]; Low viscosity emulsified formulation, Sunlight, 4 weeks): 100.5%
content, % compared to an initial content ([3]; Low viscosity emulsified formulation, Sunlight, 8 weeks): 99.8%
content, % compared to an initial content ([3]; Low viscosity emulsified formulation, Sunlight, 12 weeks): 102%
content stability Result ([3]; Low viscosity emulsified formulation, Sunlight): Stable
content, % compared to an initial content ([3]; Solubilized formulation, 4° C., 1 week): 98.8%
content, % compared to an initial content ([3]; Solubilized formulation, 4° C., 2 weeks): 91.9%
content, % compared to an initial content ([3]; Solubilized formulation, 4° C., 4 weeks): 98.7%
content, % compared to an initial content ([3]; Solubilized formulation, 4° C., 8 weeks): 97.6%
content, % compared to an initial content ([3]; Solubilized formulation, 4° C., 12 weeks): 99.5%
content stability Result ([3]; Solubilized formulation, 4° C.): Stable
content, % compared to an initial content ([3]; Solubilized formulation, 30° C., 1 week): 100.0%
content, % compared to an initial content ([3]; Solubilized formulation, 30° C., 2 weeks): 103.2%
content, % compared to an initial content ([3]; Solubilized formulation, 30° C., 4 weeks): 102.7%
content, % compared to an initial content ([3]; Solubilized formulation, 30° C., 8 weeks): 98.5%
content, % compared to an initial content ([3]; Solubilized formulation, 30° C., 12 weeks): 104.5%
content stability Result ([3]; Solubilized formulation, 30° C.): Stable
content, % compared to an initial content ([3]; Solubilized formulation, 45° C., 1 week): 102.8%
content, % compared to an initial content ([3]; Solubilized formulation, 45° C., 2 weeks): 101.6%
content, % compared to an initial content ([3]; Solubilized formulation, 45° C., 4 weeks): 94.2%
content, % compared to an initial content ([3]; Solubilized formulation, 45° C., 8 weeks): 97.2%
content, % compared to an initial content ([3]; Solubilized formulation, 45° C., 12 weeks): 94.9%
content stability Result ([3]; Solubilized formulation, 45° C.): Stable
content, % compared to an initial content ([3]; Solubilized formulation, Sunlight, 1 week): 98.8%
content, % compared to an initial content ([3]; Solubilized formulation, Sunlight, 2 weeks): 94.8%
content, % compared to an initial content ([3]; Solubilized formulation, Sunlight, 4 weeks): 98.4%
content, % compared to an initial content ([3]; Solubilized formulation, Sunlight, 8 weeks): 98%
content, % compared to an initial content ([3]; Solubilized formulation, Sunlight, 12 weeks): 94.6%
content stability Result ([3]; Solubilized formulation, Sunlight): Stable
Compound: CC(C)=CC1C[C@](O)([C@H]2CC[C@]3(C)[C@@H]2CC[C@@H]2[C@@]4(C=O)CC[C@H](O[C@@H]5OC[C@H](O)[C@H](O[C@@H]6OC[C@@H](O)[C@H](O)[C@H]6O)[C@H]5O[C@@H]5O[C@@H](C)[C@H](O)[C@@H](O)[C@H]5O)C(C)(C)[C@@H]4CC[C@]23C)[C@H](O)O1 (stereo partly drawn) [Gypenoside UL4, (23ξ)-3β,20β,21α-trihydroxy-19-oxo-21,23-epoxy-dammar-24-ene-3-O-[α-L-rhamnopyranosyl (1→2)][β-D-xylopyranosyl (1→3)]-α-L-arabinopyranoside]
procollagen-producing effect compared with NAG [1]: the same or larger amount of procollagen
HDFn Viability ([2]; 5 ug/ml): 98%
HDFn Viability ([2]; 10 ug/ml): 100%
HDFn Viability ([2]; 50 ug/ml): 106%
cytotoxicity ([2]; at concentrations promoting procollagen synthesis): did not show any cytotoxicity
